Assay results reported in patent publication US10150729B2, “Tranilast compositions and cocrystals” (NUFORMIX LIMITED, priority 2012, dated 2018).
Like-named read-outs stand apart in the source and are kept apart here.

How the values were obtained:
[1] = Solid-state photostability study (UV irradiation, HPLC); conditions: UV light; for photostability in the solid-state: compared to pure crystalline tranilast
Procedure: A study was, therefore, carried out to determine the solid-state photostability of the 1:1 tranilast nicotinamide cocrystal, the 1:1 tranilast saccharin cocrystal, the 1:1 tranilast gentisic acid cocrystal, the 1:1 salicylic acid cocrystal, the 1:1 tranilast urea cocrystal, the 1:1 tranilast 4-aminobenzoic acid cocrystal and the 1:1 tranilast 2,4-dihydroxybenzoic acid cocrystal and to compare this with the solid state photostability of pure crystalline tranilast. A 1-2 mg sample of crystalline tranilast and the seven cocrystal forms were each weighed and spread over the bottom surface of a clear glass vial. The vials were placed into a Vindon Scientific Photostability cabinet and irradiated with UV light (average Klux=18.2 (18.2 Lux/hour), average UV values=2.55 watts/minute, temperature=31.0-32.0° C.). The percentage of tranilast remaining in each sample, that had not undergone degradation into the cis-isomer, dimer or any other degradation product, was determined at 3, 24 and 48 hours using HPLC.

[2] = Solution photostability study (UV irradiation, HPLC); conditions: dissolved in DMSO/MeOH/water; UV light; 24 hrs
Procedure: (§1) This study explored the photostability of the 1:1 tranilast nicotinamide cocrystal, the 1:1 tranilast saccharin cocrystal, the 1:1 tranilast gentisic acid cocrystal, the 1:1 salicylic acid cocrystal, the 1:1 tranilast urea cocrystal, the 1:1 tranilast 4-aminobenzoic acid cocrystal and the 1:1 tranilast 2,4-dihydroxybenzoic acid cocrystal once dissolved in solution and to compare these with the solution photostability of pure tranilast. A 1 mg sample of crystalline tranilast and the seven cocrystal forms were each weighed into a clear glass vial. Each sample was dissolved in a mixture of DMSO (200 μl), MeOH (600 μl) and water (600 μl). The vials were placed into a Vindon Scientific Photostability cabinet and irradiated with UV light (average Klux=18.2 (18.2 Lux/hour), average UV values=2.55 watts/minute, temperature=31.0-32.0° C.). The percentage of tranilast remaining in each sample, that had not undergone degradation into the cis-isomer, dimer or any other degradation product, was determined after 24 hours using HPLC.

[3] = buffer, 24 h
Procedure: as §1

[4] = Physical stability study of the cocrystal under accelerated conditions (40° C./75% RH), examined by XRPD; type: physicochemical
Procedure: X-Ray Powder Diffraction patterns at the required time points were collected on a PANalytical diffractometer using Cu Kα radiation (45 kV, 40 mA), θ-θ goniometer, focusing mirror, divergence slit (½″), soller slits at both incident and divergent beam (4 mm) and a PIXcel detector. The software used for data collection was X'Pert Data Collector, version 2.2f and the data was presented using X'Pert Data Viewer, version 1.2d. Instrument verification was performed using a silicon and benzoic acid standard, performed with the same batch program as listed below for sample analysis. Samples were run under ambient conditions and were analysed by transmission foil XRPD, using the powder as received. Approximately 2-5 mg of the sample was mounted on a 96 position sample plate supported on a polyimide (Kapton, 12.7 μm thickness) film. Plate height (Z) was set to 9 mm. Data was collected in the range 3-40° 2θ with a continuous scan (speed of 0.2° 2θ/s).
A stability study was carried out to examine the physical stability of the 1:1 tranilast nicotinamide cocrystal with respect to dissociation into its starting components over time under accelerated conditions. Approximately 1-2 mg of the 1:1 tranilast nicotinamide cocrystal was placed in seven clear glass vials. The glass vials were loosely sealed with plastic screw caps so as to provide a barrier to solid transfer but to still allow moisture equilibration with the outer environment. The vial head space above the sample was estimated to be >95% of the total vial volume. All seven samples were then placed on a tray and stored within a stability cabinet set at 40° C./75% RH. At every time point examined the XRPD pattern obtained was characteristic of the 1:1 tranilast nicotinamide cocrystal with no evidence of either of the starting materials, or any new peaks to indicate conversion to a different crystalline form. FIG. 7 illustrates the XRPD patterns obtained at the time points 0, three months and six months. FIG. 7 is an overlay of the XRPD patterns of the 1:1 tranilast nicotinamide cocrystal at those time points during a 6 month accelerated stability study at 40° C./75% RH.

[5] = Dissolution study in purified water containing 2% SDS; type: physicochemical
Procedure: For poorly soluble drugs, such as tranilast, the rate of dissolution of the drug form used can have an impact on the overall absorption and thus bioavailability of the drug, especially for example, in the case of oral solid dosage or inhalation delivery methods. […] The dissolution experiment was carried out for tranilast and each of the cocrystal forms at a concentration equivalent to 0.4 mg tranilast/ml in purified water containing 2% SDS. This study compared the dissolution rates of the cocrystals versus pure crystalline tranilast, because of the extremely low solubility of crystalline tranilast in aqueous media, the surfactant sodium dodecyl sulfate (SDS) was added to the dissolution media to allow easier analytical detection. Samples were collected and analysed at 1, 5, 10 and 30 minute time points. The samples were analysed by HPLC using the method described in Table 10. FIG. 32 illustrates the dissolution profiles from a single dataset for each of the tranilast cocrystals alongside crystalline tranilast over the 30 minute time period in the aqueous 2% SDS solution. The dissolution data is corrected within error limits of the analytical method described (estimated at ±10%). […] Most of the cocrystals reach almost their maximum dissolution within the first minute.

Row | Compound | percentage of tranilast remaining ([1]; 3 hrs) [%] | percentage of tranilast remaining ([1]; 24 hrs) [%] | percentage of tranilast remaining ([1]; 48 hrs) [%] | photostability in the solid-state [1] | percentage of tranilast remaining [2] [%] | further results
1 | COc1ccc(/C=C/C(=O)Nc2ccccc2C(=O)O)cc1OC.Nc1ccc(C(=O)O)cc1 | 99.8 | 98.2 | 99.7 | comparable photostability | 76.2 | –
2 | COc1ccc(/C=C/C(=O)Nc2ccccc2C(=O)O)cc1OC.O=C(O)c1cc(O)ccc1O [1:1 Tranilast Gentisic Acid Cocrystal] | – | – | – | – | – | percentage of tranilast remaining [3]: 76.3%; percentage of tranilast remaining (3 h): 99.6%; percentage of tranilast remaining (24 h): 99.8%; percentage of tranilast remaining (48 h): 99.9%
3 | COc1ccc(/C=C/C(=O)Nc2ccccc2C(=O)O)cc1OC.NC(=O)c1cccnc1 [1:1 Tranilast Nicotinamide Cocrystal] | 99.3 | 99.9 | 99.9 | comparable photostability | 80.2 | XRPD Characterization ([4]; 1 month): cocrystal; XRPD Characterization ([4]; 1 week): cocrystal; XRPD Characterization ([4]; 2 months): cocrystal; XRPD Characterization ([4]; 2 week): cocrystal; XRPD Characterization ([4]; 3 months): cocrystal; XRPD Characterization ([4]; 3 week): cocrystal; XRPD Characterization ([4]; 6 months): cocrystal; physical stability with respect to dissociation or conversion to another crystalline form ([4]; six month period): stable; XRPD Characterization ([4]; time point 0): cocrystal; dissolution reached ([5]; within 1 minute): almost complete dissolution
4 | COc1ccc(/C=C/C(=O)Nc2ccccc2C(=O)O)cc1OC.O=C1NS(=O)(=O)c2ccccc21 [1:1 Tranilast Saccharin Cocrystal] | 99.8 | 99.6 | 99.1 | comparable photostability | 71.0 | –
5 | COc1ccc(/C=C/C(=O)Nc2ccccc2C(=O)O)cc1OC.O=C(O)c1ccccc1O [1:1 Tranilast Salicyclic Acid Cocrystal] | 99.8 | 99.6 | 98.7 | comparable photostability | 77.5 | –
6 | COc1ccc(/C=C/C(=O)Nc2ccccc2C(=O)O)cc1OC.NC(N)=O [1:1 Tranilast Urea Cocrystal] | 99.8 | 99.6 | 99.9 | comparable photostability | 76.4 | –
7 | COc1ccc(/C=C/C(=O)Nc2ccccc2C(=O)O)cc1OC [Crystalline Tranilast, 2-[[3-(3,4-dimethoxyphenyl)-1-oxo-2-propenyl]amino] benzoic acid, reference compound] | 98.9 | 99.8 | 99.7 | – | 66.2 | dissolved ([5]; after 1 minute, 0.4 mg tranilast/ml): about 5%
